Reference: patent US20120059162A1, “FUSED IMIDAZOLE DERIVATIVE HAVING TTK INHIBITORY ACTION” (Oncotherapy Science, Inc., priority 2009, published 2012)
Where two headings read alike, the source gives them in different places.

Tests used:
TTK = molecular target: T1, TTK (Homo sapiens, UniProt P33981); assay: TTK assay: screening of TTK kinase activity suppressing action using p38 MAPK peptide; format: biochemical; conditions: read-out: TTK IC50
T1 sequence (P33981 1-857): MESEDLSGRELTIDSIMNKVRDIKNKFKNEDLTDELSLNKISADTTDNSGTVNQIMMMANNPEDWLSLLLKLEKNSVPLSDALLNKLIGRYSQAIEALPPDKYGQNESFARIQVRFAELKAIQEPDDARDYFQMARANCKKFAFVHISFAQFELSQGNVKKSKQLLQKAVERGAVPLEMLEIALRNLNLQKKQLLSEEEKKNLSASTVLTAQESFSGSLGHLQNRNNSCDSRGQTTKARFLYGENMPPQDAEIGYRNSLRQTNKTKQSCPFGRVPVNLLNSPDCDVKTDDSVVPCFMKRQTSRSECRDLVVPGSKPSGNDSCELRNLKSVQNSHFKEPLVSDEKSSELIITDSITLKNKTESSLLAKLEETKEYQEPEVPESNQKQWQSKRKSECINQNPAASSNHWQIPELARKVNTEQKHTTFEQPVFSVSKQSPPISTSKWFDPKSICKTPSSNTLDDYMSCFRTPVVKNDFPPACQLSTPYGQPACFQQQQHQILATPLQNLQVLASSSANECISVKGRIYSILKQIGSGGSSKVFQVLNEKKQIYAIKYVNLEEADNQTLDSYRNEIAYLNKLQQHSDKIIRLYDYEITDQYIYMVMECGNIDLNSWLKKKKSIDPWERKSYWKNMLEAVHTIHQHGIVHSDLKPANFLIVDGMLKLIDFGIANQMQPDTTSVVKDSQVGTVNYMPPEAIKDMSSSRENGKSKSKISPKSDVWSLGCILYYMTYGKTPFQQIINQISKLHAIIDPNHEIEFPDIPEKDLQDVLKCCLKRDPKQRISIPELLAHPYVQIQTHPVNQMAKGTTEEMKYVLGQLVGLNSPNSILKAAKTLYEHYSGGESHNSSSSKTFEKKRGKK
How it was run: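 TTK (4 μg/ml in enzyme solution) mixed with p38 MAPK peptide and ATP (each 60 μM in substrate solution) in Tris-HCl pH 7.5 with MgCl2, DTT, Na3VO4, β-glycerophosphate, BSA. Reaction aliquot captured on NeutrAvidin plate, detected with Eu-labelled anti-mouse IgG by time-resolved fluorescence; inhibition relative to no-compound signal.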

A549 = A549 assay: screening of cancer cell growth inhibiting compound; format: cell-based; conditions: Homo sapiens, A549 cells, read-out: A549 IC50
How it was run: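 A549 cells (1×10^4/ml) in D-MEM with 10% FBS were pre-incubated one day at 37 °C, then exposed to compound dilutions for three further days. Viable cell number read by WST-8 (1–4 hours), absorbance 450 nm (reference 620 nm); inhibition calculated relative to untreated wells.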

IC50 (TTK; p38 MAPK peptide substrate) [nM]	IC50 (A549; 72 h, three days, WST-8) [nM]	IC50 (TTK) [nM]	IC50 (A549; values given as IC50 intervals) [nM]	Structure (SMILES)
26.1	50 to 500	–	–	Cn1ccc(CNc2cc(NC3CCCCC3)nn3c(-c4ccc(C(=O)NC5CC5)cc4)cnc23)n1 [Example 2-159]
3.1	50 to 500	–	–	O=C(NC1CC1)c1ccc(-c2cnc3c(NCc4nccs4)cc(NC4CCCCC4)nn23)cc1 [Example 2-160]
5.6	500 to 1000	–	–	CC(C)ONc1cc(NC2CCCCC2)nn2c(-c3ccc(C(=O)NC4CC4)cc3)cnc12 [Example 2-161]
3.6	50 to 500	–	–	CC(CNc1cc(NC2CCCCC2)nn2c(-c3ccc(C(=O)NC4CC4)cc3)cnc12)C(F)(F)F (stereo not shown) [Example 2-162]
3.3	50 to 500	–	–	O=C(NC1CC1)c1ccc(-c2cnc3c(NC[C@H]4CC[C@H](O)CC4)cc(NC4CCCCC4)nn23)cc1 [Example 2-164]
5.6	1000 to 10000	–	–	O=C(NC1CC1)c1ccc(-c2cnc3c(NCc4ccc(=O)[nH]c4)cc(NC4CCCCC4)nn23)cc1 [Example 2-165]
4.5	50 to 500	–	–	COC(C)CNc1cc(NC2CCCCC2)nn2c(-c3ccc(C(=O)NC4CC4)cc3)cnc12 (stereo not shown) [Example 2-166]
–	–	3.9	50 to 500	O=C(NC1CC1)c1ccc(-c2cnc3c(NCC4CCCO4)cc(NC4CCCCC4)nn23)cc1 (stereo not shown) [Example 2-167]
–	–	3.3	50 to 500	CC(CO)CNc1cc(NC2CCCCC2)nn2c(-c3ccc(C(=O)NC4CC4)cc3)cnc12 (stereo not shown) [Example 2-168]
–	–	7.2	50 to 500	O=C(NC1CC1)c1ccc(-c2cnc3c(NCC4(O)CCOCC4)cc(NC4CCCCC4)nn23)cc1 [Example 2-169]
–	–	3.5	50 to 500	CC1(Oc2cc(NCC3CCOCC3)c3ncc(-c4ccc(C(=O)NC5CC5)cc4)n3n2)CCCCC1 [Example 2-171, N-Cyclopropyl-4-(6-(1-methylcyclohexyloxy)-8-((tetrahydro-2H-pyran-4-yl)methylamino)imidazo[1,2-b]pyridazin-3-yl)benzamide]
–	–	20.3	500 to 1000	COc1cc(NCC2CCOCC2)c2ncc(-c3ccc(C(=O)NC4CC4)cc3)n2n1 [Example 2-172]
–	–	5.4	50 to 500	O=C(NC1CC1)c1ccc(-c2cnc3c(NCC4CCOCC4)cc(OC4CCCC4)nn23)cc1 [Example 2-173]
–	–	14.1	50 to 500	CC(Oc1cc(NCC2CCOCC2)c2ncc(-c3ccc(C(=O)NC4CC4)cc3)n2n1)c1ccccc1 (stereo not shown) [Example 2-174]
–	–	11.4	50 to 500	COCCOc1cc(NCC2CCOCC2)c2ncc(-c3ccc(C(=O)NC4CC4)cc3)n2n1 [Example 2-175]
–	–	14.3	50 to 500	N#Cc1ccc(Oc2cc(NCC3CCOCC3)c3ncc(-c4ccc(C(=O)NC5CC5)cc4)n3n2)cc1 [Example 2-177]
–	–	7.1	50 to 500	CC(C)Oc1cc(NCC2CCOCC2)c2ncc(-c3ccc(C(=O)NC4CC4)cc3)n2n1 [Example 2-178]
–	–	3.7	≤ 50	COc1ccc(Oc2cc(NCC3CCOCC3)c3ncc(-c4ccc(C(=O)NC5CC5)cc4)n3n2)cc1 [Example 2-179]
–	–	12.2	1000 to 10000	O=C(NC1CC1)c1ccc(-c2cnc3c(NCC4CCOCC4)cc(OC4CCNCC4)nn23)cc1 [Example 2-180]
–	–	10.2	50 to 500	O=C(NC1CC1)c1ccc(-c2cnc3c(NCC4CCOCC4)cc(OC4CCCCCC4)nn23)cc1 [Example 2-181]
–	–	8.4	50 to 500	CC(C)(C)Oc1cc(NCC2CCOCC2)c2ncc(-c3ccc(C(=O)NC4CC4)cc3)n2n1 [Example 2-182]
–	–	5.7	50 to 500	O=C(NC1CC1)c1ccc(-c2cnc3c(NCC4CCOCC4)cc(OCC(F)(F)F)nn23)cc1 [Example 2-183]
–	–	5.6	50 to 500	CC(Oc1cc(NCC2CCOCC2)c2ncc(-c3ccc(C(=O)NC4CC4)cc3)n2n1)C(F)(F)F (stereo not shown) [Example 2-184]
–	–	2.7	50 to 500	CC(C)(Oc1cc(NCC2CCOCC2)c2ncc(-c3ccc(C(=O)NC4CC4)cc3)n2n1)C(F)(F)F [Example 2-185]
–	–	6.8	500 to 1000	O=C(NC1CC1)c1ccc(-c2cnc3c(NCC4CCOCC4)cc(OC4CCC(C(F)(F)F)CC4)nn23)cc1 (stereo not shown) [Example 2-186]
–	–	7.8	500 to 1000	CC1(C)CCC(Oc2cc(NCC3CCOCC3)c3ncc(-c4ccc(C(=O)NC5CC5)cc4)n3n2)CC1 [Example 2-187]
–	–	5.3	50 to 500	O=C(NC1CC1)c1ccc(-c2cnc3c(NCC4CCOCC4)cc(OC4CCCCC4O)nn23)cc1 (stereo not shown) [Example 2-188]
–	–	8.6	500 to 1000	NC1CCCCC1Oc1cc(NCC2CCOCC2)c2ncc(-c3ccc(C(=O)NC4CC4)cc3)n2n1 (stereo not shown) [Example 2-189]

More lines, now with the values behind:

Structure (SMILES)	IC50 (TTK; p38 MAPK peptide substrate) [nM]	IC50 (A549; 72 h, three days, WST-8) [nM]	IC50 (TTK) [nM]	IC50 (A549; values given as IC50 intervals) [nM]
CC(C)(C)CNc1cc(NC2CCCCC2)nn2c(-c3ccc(C(=O)NC4CC4)cc3)cnc12 [Example 2-135]	9.6	50 to 500	–	–
O=C(NC1CC1)c1ccc(-c2cnc3c(NCCSCCO)cc(NC4CCCCC4)nn23)cc1 [Example 2-136]	7.3	50 to 500	–	–
CCC(C)CNc1cc(NC2CCCCC2)nn2c(-c3ccc(C(=O)NC4CC4)cc3)cnc12 (stereo not shown) [Example 2-137]	7.3	50 to 500	–	–
COCCCCNc1cc(NC2CCCCC2)nn2c(-c3ccc(C(=O)NC4CC4)cc3)cnc12 [Example 2-138]	5.5	50 to 500	–	–
CC(C)CCNc1cc(NC2CCCCC2)nn2c(-c3ccc(C(=O)NC4CC4)cc3)cnc12 [Example 2-139]	10.5	50 to 500	–	–
CCCNc1cc(NC2CCCCC2)nn2c(-c3ccc(C(=O)NC4CC4)cc3)cnc12 [Example 2-141]	7	50 to 500	–	–
CCC(C)Nc1cc(NC2CCCCC2)nn2c(-c3ccc(C(=O)NC4CC4)cc3)cnc12 (stereo not shown) [Example 2-143]	19.8	500 to 1000	–	–
O=C(NC1CC1)c1ccc(-c2cnc3c(NCC(F)F)cc(NC4CCCCC4)nn23)cc1 [Example 2-144]	3.5	50 to 500	–	–
O=C(NC1CC1)c1ccc(-c2cnc3c(NCC(F)(F)F)cc(NC4CCCCC4)nn23)cc1 [Example 2-145]	3	50 to 500	–	–
O=C(NC1CC1)c1ccc(-c2cnc3c(NCC4CCS(=O)(=O)CC4)cc(NC4CCCCC4)nn23)cc1 [Example 2-146]	3.8	500 to 1000	–	–
O=C(NC1CC1)c1ccc(-c2cnc3c(NCc4cncs4)cc(NC4CCCCC4)nn23)cc1 [Example 2-147]	2.9	50 to 500	–	–
Cn1cncc1CNc1cc(NC2CCCCC2)nn2c(-c3ccc(C(=O)NC4CC4)cc3)cnc12 [Example 2-148]	3.9	500 to 1000	–	–
Cn1cnc(CNc2cc(NC3CCCCC3)nn3c(-c4ccc(C(=O)NC5CC5)cc4)cnc23)c1 [Example 2-149]	5.4	50 to 500	–	–
Cn1cc(CNc2cc(NC3CCCCC3)nn3c(-c4ccc(C(=O)NC5CC5)cc4)cnc23)cn1 [Example 2-150]	3.8	50 to 500	–	–
O=C(NC1CC1)c1ccc(-c2cnc3c(NCc4cccs4)cc(NC4CCCCC4)nn23)cc1 [Example 2-151]	3.1	50 to 500	–	–
O=C(NC1CC1)c1ccc(-c2cnc3c(NCc4ccco4)cc(NC4CCCCC4)nn23)cc1 [Example 2-152]	3.6	50 to 500	–	–
O=C(NC1CC1)c1ccc(-c2cnc3c(NCC45CCN(CC4)CC5)cc(NC4CCCCC4)nn23)cc1 [Example 2-153]	7.5	50 to 500	–	–
O=C(NC1CC1)c1ccc(-c2cnc3c(NCc4ccccn4)cc(NC4CCCCC4)nn23)cc1 [Example 2-154]	5	50 to 500	–	–
O=C(NC1CC1)c1ccc(-c2cnc3c(NCc4ccncc4)cc(NC4CCCCC4)nn23)cc1 [Example 2-155]	4.1	50 to 500	–	–
O=C(NC1CC1)c1ccc(-c2cnc3c(NCc4cccnc4)cc(NC4CCCCC4)nn23)cc1 [Example 2-156]	4.4	50 to 500	–	–
O=C(NC1CC1)c1ccc(-c2cnc3c(NCc4ccoc4)cc(NC4CCCCC4)nn23)cc1 [Example 2-157]	3.4	50 to 500	–	–
Cc1cc(CNc2cc(NC3CCCCC3)nn3c(-c4ccc(C(=O)NC5CC5)cc4)cnc23)no1 [Example 2-158]	3.2	50 to 500	–	–
